Data taken from patent US20230310432A1 (JULIUS-MAXIMILIANS-UNIVERSITÄT WÜRZBURG, priority 2017, published 2023).

Legend:
[1] = test system: CD8+ T cells expressing a CD19 CAR with 4-1BB costimulation; test: Cytokine production and secretion (IFN-γ, IL-2 ELISA), co-culture with K562/CD19; assay type: cell-based, human; details: 20 h
[2] = test system: CD8+ T cells expressing a ROR1 CAR with 4-1BB costimulatory domain; test: CFSE proliferation assay, co-culture with K562/ROR1; assay type: cell-based, human; details: dasatinib ≥50 nM; 72 h
Method: Proliferation: T cells were labeled with 0.2 μM carboxyfluorescein succinimidyl ester (CFSE, Invitrogen), washed and plated in duplicate or triplicate wells with irradiated (80 Gy) stimulator cells at an E:T ratio of 4:1 (K562/ROR1, K562/CD19 or RCH-ACV). No exogenous cytokines were added to the culture medium. After a 72-hour incubation, cells were labeled with anti-CD3 mAb, and analyzed by flow cytometry to assess cell division of T cells.
CAR-T cells were labeled with CFSE and co-cultured with K562 that the inventors had transduced with either CD19 (for testing CD19 CAR-T cells) or ROR1 (for testing ROR1 CAR-T cells). Dasatinib was added to the assay medium at the beginning of the co-culture assay. Flow cytometric analyses were performed to determine the proliferation of T cells at the end of the co-culture assay.

[3] = test system: CD8+ T cells expressing a SLAMF7-CAR with 4-1BB costimulation; test: Bioluminescence-based cytotoxicity assay, K562/SLAMF7 target cells; assay type: cell-based, human
[4] = test system: CAR CD3 zeta at tyrosine 142; test: Quantitative Western blot of phosphorylation in CD8+ CD19 CAR/4-1BB T cells; assay type: cell-based, human; details: 100 nM dasatinib; co-culture with RCH-ACV
[5] = test system: ZAP70 at tyrosine 319; test: as above; assay type: cell-based, human; details: 100 nM dasatinib; co-culture with RCH-ACV
[6] = test system: NFAT/GFP reporter in CD8+ CD19 CAR/4-1BB T cells; test: NFAT/GFP reporter assay during sequential stimulation; assay type: cell-based, human; details: day 1
[7] = test system: NFAT/GFP reporter in CD4+ T cells co-expressing the CD19 CAR with 4-1BB costimulatory domain; test: as above; assay type: cell-based, human
[8] = test system: NFAT inducible GFP reporter gene in CD19CAR/41BB T cells; test: NFAT-inducible GFP reporter expression in CAR-T cells in vivo; parameters: species or system NSG mice
Description: The inventors prepared CD8^+ and CD4^+ CD19CAR/41BB T cells, which the inventors transduced to co-express an NFAT inducible GFP reporter gene.

[9] = test system: activated CD19 CAR/4-1BB-T cells; Raji tumor cells; test: Raji tumor burden by bioluminescence imaging, function ON/OFF/ON (Example 7); assay type: in vivo, NSG mice; details: between day 12 and 17; CAR-T cells with prior dasatinib; 97.8% without
Method: The Institutional Animal Care and Use Committee of UKW approved all mouse experiments. NOD.Cg-Prkdc^scidIl2rg^tm1wjl/SzJ (NSG) mice (female, 6-8 week old) were purchased from Charles River (Sulzfeld, Germany). Mice were inoculated with 1×10^6 Raji/ffluc_GFP tumor cells via tail vein injection (i.v.). Mice were treated with 5×10^6 CAR-modified or control untransduced T-cells (CD4:CD8 ratio=1:1) via tail vein injection (i.v.). […] Tumor burden and distribution was analyzed by serial bioluminescence imaging on an IVIS Lumina imager (Perkin Elmer, Baesweiler, Germany): mice received i.p. injections of 0.3 mg/g luciferin and images were acquired 10 minutes after luciferin injection in small binning mode at an acquisition time of 1 s to 1 min to obtain unsaturated images. Data were analyzed using LivingImage Software (Caliper) and the average radiance (or photon flux) analyzed in regions of interest that encompassed the entire body of each individual mouse. Mice were sacrificed at the end of the experiment and human T cells in bone marrow, peripheral blood and spleen were analyzed by flow cytometry. The presence of (human) cytokines in serum was measured using multiplex cytokine analysis. […]
Raji tumor burden was determined by bioluminescence imaging on day 7, day 10, day 12, day 14, day 17, and subsequently, once a week (FIG. 16B).

[10] = test system: CD19 CAR/4-1BB-T cells; Raji tumor cells; test: Tumor burden by bioluminescence imaging, intermittent dasatinib (Example 11); assay type: in vivo, NSG mice; details: day 8; CAR-T cells and intermittent dasatinib 5 mg/kg; 1.9e10 without dasatinib
Method: (§1) The Institutional Animal Care and Use Committee of UKW approved all mouse experiments. NOD.Cg-Prkdc^scidIl2rg^tm1wjl/SzJ (NSG) mice (female, 6-8 week old) were purchased from Charles River (Sulzfeld, Germany). Mice were inoculated with 1×10^6 Raji/ffluc_GFP tumor cells via tail vein injection (i.v.). Mice were treated with 5×10^6 CAR-modified or control untransduced T-cells (CD4:CD8 ratio=1:1) via tail vein injection (i.v.). […] Tumor burden and distribution was analyzed by serial bioluminescence imaging on an IVIS Lumina imager (Perkin Elmer, Baesweiler, Germany): mice received i.p. injections of 0.3 mg/g luciferin and images were acquired 10 minutes after luciferin injection in small binning mode at an acquisition time of 1 s to 1 min to obtain unsaturated images. Data were analyzed using LivingImage Software (Caliper) and the average radiance (or photon flux) analyzed in regions of interest that encompassed the entire body of each individual mouse. Mice were sacrificed at the end of the experiment and human T cells in bone marrow, peripheral blood and spleen were analyzed by flow cytometry. The presence of (human) cytokines in serum was measured using multiplex cytokine analysis.
In brief, cohorts of 1-12 mice were inoculated with 1×10^6 firefly-luciferase_GFP-transduced Raji tumor cells on day 0. […]

[11] = test system: CD19 CAR/4-1BB-T cells; Raji tumor cells; test: Flow cytometry of tumor cells and human CAR-T cells in bone marrow and spleen, intermittent dasatinib; assay type: in vivo, NSG mice; details: day 15
Method: as §1
(§2) In brief, cohorts of 1-12 mice were inoculated with 1×10^6 firefly-luciferase_GFP-transduced Raji tumor cells on day 0. […] Serial bioluminescence imaging was performed to determine tumor burden on day 7, 9 and 15.
On day 15, mice were sacrificed and peripheral blood (PB), bone marrow (BM) and spleen (SP) analyzed for the presence of human CAR-T cells by flow cytometry.

[12] = test system: PD-1 on CD19 CAR/4-1BB T cells; test: Surface expression of PD-1 on human CAR-T cells by flow cytometry, intermittent dasatinib; assay type: in vivo, NSG mice; details: intermittently treated (CAR/+)
Method: as §2
Based on the mouse model introduced in Example 11 (FIG. 21A), the inventors analyzed the surface expression of PD-1 on human CAR-T cells in bone marrow (BM), peripheral blood (PB) and spleen (SP) by flow cytometry.

[13] = test system: CAR-T cells co-expressing the iCasp suicide gene; test: Elimination of iCasp+ T cells; assay type: cell-based, human; details: 100 nM dasatinib and dimerizer (dasatinib+/dimerizer+); 24 hours
Method: After 24 hours, cells were labeled with anti-CD3 mAB and analyzed by flow cytometry for the presence of iCasp+ T cells.
After 24 hours, cells were labeled with anti-CD3 mAB and analyzed by flow cytometry for the presence of iCasp^+ T cells.

[14] = dasatinib 100 nM added 2 hours after the start of the co-culture
[15] = d+3, dasatinib not in effect any more

## Cc1nc(Nc2ncc(C(=O)Nc3c(C)cccc3Cl)s2)cc(N2CCN(CCO)CC2)n1 [dasatinib]
[1]; [14]
  residual IFN-γ production (untreated CAR-T cells=100%): 51%
  residual IL-2 production (untreated CAR-T cells=100%): 28%
[1]; dasatinib ≥6.25 nM
  residual specific IFN-γ production compared to non-dasatinib treated CAR-T cells: less than 45%
  residual specific IL-2 production compared to non-dasatinib treated CAR-T cells: less than 60%
[1]; dasatinib ≥50 nM
  residual specific IL-2 production compared to non-dasatinib treated CAR-T cells: less than 1%
[2]
  residual proliferation compared to non-dasatinib treated CAR-T cells: less than 7%
[3]; dasatinib 20 nM, t=6 h, 63% by non-dasatinib treated
  specific lysis of target cells: 21%
[3]; dasatinib 20 nM, t=12 h, 83% by non-dasatinib treated
  specific lysis of target cells: 35%
[3]; dasatinib ≥40 nM, t=12 h, 83% by non-dasatinib treated
  specific lysis of target cells: less than 10%
[3]; dasatinib ≥40 nM, up to t=6 h
  specific lysis of target cells: less than 5.5%
[4]
  phosphorylation compared to CAR-T cells co-cultured in the absence of dasatinib: 12.86%
[5]
  phosphorylation compared to CAR-T cells co-cultured in the absence of dasatinib: 11.61%
[6]; dasatinib added one hour after assay set up, 1949 in untreated stimulated CAR-T cells
  GFP MFI: 734
[6]; dasatinib present from the beginning
  GFP MFI: 137
[7]; day 1, dasatinib present from the beginning
  GFP MFI: 317
[7]; day 3, treated at 1 hour after assay set up, 2499 in untreated
  GFP MFI: 326
[7]; day 3, treated from the beginning, 2499 in untreated
  GFP MFI: 108
[8]; d+1, CAR/treated, 10687 CAR/untreated
  mean fluorescence intensity (MFI) for GFP in bone marrow CAR-T cells: 6967
[8]; d+1, treated vs untreated
  reduction of GFP MFI, bone marrow CAR-T cells: 35%
  reduction of GFP reporter gene expression, spleen CAR-T cells: 36%
[8]; [15]
  difference in GFP between previously treated and untreated CAR-T cells, bone marrow: 10%
  difference in GFP between previously treated and untreated CAR-T cells, spleen: 23%
[9]
  reduction of tumor luminescence: 66%
[10]
  average bioluminescence signal: 5.6e9 p/s/cm*2/sr
[11]; intermittent dasatinib, 1.9% without
  percentage of human CAR-T cells, bone marrow: 7.3%
[11]; intermittent dasatinib, 3.2% without
  percentage of human CAR-T cells, spleen: 6.9%
[11]; one exemplary mouse, CAR-T cells and intermittent dasatinib, 58.8% CAR-T cells only
  remaining tumor burden, of all living cells in the bone marrow: 0.22%
[12]; 4110 not exposed
  PD-1 mean fluorescence intensity (MFI) on CAR-T cells, peripheral blood: 2775
[12]; 4318 not exposed
  PD-1 mean fluorescence intensity (MFI) on CAR-T cells, spleen: 23652
[12]; 9461 not exposed
  PD-1 mean fluorescence intensity (MFI) on CAR-T cells, bone marrow: 7025
[13]
  percentage of iCasp+ cells: 36%
